Laboratory results from the NIST ThermoML archive (doi:10.1016/j.jct.2012.12.007).

Assay: xn = mol fraction of the nth substance listed
Settings: 101.3 kPa, Liquid; for speed of sound: Sing-around technique in a fixed-path interferometer; for mass density: Vibrating tube method

CCOCCOCCOCC [diethylene glycol diethyl ether] + CCCCCCCCCCO
Settings | mass density [kg/m3] | speed of sound [m/s]
293.15 K, x2 = 0.0632 | 901.86 | 1267.1
293.15 K, x2 = 0.1084 | 897.94 | 1272.6
293.15 K, x2 = 0.2052 | 889.79 | 1284.5
293.15 K, x2 = 0.294 | 882.49 | 1295.5
293.15 K, x2 = 0.393 | 874.57 | 1308.1
293.15 K, x2 = 0.4943 | 866.66 | 1321.4
293.15 K, x2 = 0.543 | 862.92 | 1327.9
293.15 K, x2 = 0.5932 | 859.11 | 1334.7
293.15 K, x2 = 0.6872 | 852.12 | 1348.1
293.15 K, x2 = 0.7863 | 844.92 | 1363
293.15 K, x2 = 0.8872 | 837.76 | 1378.8
293.15 K, x2 = 0.9441 | 833.82 | 1388.1
298.15 K, x2 = 0.0605 | 897.98 | 1247.8
298.15 K, x2 = 0.111 | 893.68 | 1254.1
298.15 K, x2 = 0.1588 | 889.69 | 1260.1
298.15 K, x2 = 0.2062 | 885.79 | 1266.1
298.15 K, x2 = 0.302 | 878.08 | 1278.3
298.15 K, x2 = 0.3947 | 870.77 | 1290.4
298.15 K, x2 = 0.504 | 862.39 | 1305
298.15 K, x2 = 0.592 | 855.8 | 1317.3
298.15 K, x2 = 0.6553 | 851.16 | 1326.4
298.15 K, x2 = 0.7443 | 844.72 | 1339.5
298.15 K, x2 = 0.7923 | 841.32 | 1347
298.15 K, x2 = 0.8362 | 838.23 | 1353.8
298.15 K, x2 = 0.8836 | 834.93 | 1361.4
298.15 K, x2 = 0.94 | 831.05 | 1370.4
303.15 K, x2 = 0.0605 | 893 | 1229.6
303.15 K, x2 = 0.1016 | 889.54 | 1234.8
303.15 K, x2 = 0.154 | 885.23 | 1241.6
303.15 K, x2 = 0.2064 | 880.99 | 1248.3
303.15 K, x2 = 0.2953 | 873.94 | 1260
303.15 K, x2 = 0.3846 | 867.02 | 1271.7
303.15 K, x2 = 0.5006 | 858.29 | 1287.6
303.15 K, x2 = 0.5369 | 855.6 | 1292.7
303.15 K, x2 = 0.6486 | 847.46 | 1308.7
303.15 K, x2 = 0.7409 | 840.9 | 1322.6
303.15 K, x2 = 0.7915 | 837.36 | 1330.4
303.15 K, x2 = 0.8318 | 834.56 | 1336.7
303.15 K, x2 = 0.8856 | 830.89 | 1345.4
303.15 K, x2 = 0.9364 | 827.44 | 1353.5

CCOCCOCCOCC [diethylene glycol diethyl ether] + CCCCO
Settings | mass density [kg/m3] | speed of sound [m/s]
293.15 K, x2 = 0.1284 | 901.3 | 1262.2
293.15 K, x2 = 0.2205 | 896.11 | 1263.3
293.15 K, x2 = 0.319 | 889.85 | 1264.1
293.15 K, x2 = 0.3623 | 886.86 | 1264.3
293.15 K, x2 = 0.4157 | 882.92 | 1264.5
293.15 K, x2 = 0.4529 | 879.96 | 1264.4
293.15 K, x2 = 0.4963 | 876.35 | 1264.4
293.15 K, x2 = 0.5481 | 871.71 | 1264.3
293.15 K, x2 = 0.6523 | 861.3 | 1263.6
293.15 K, x2 = 0.7018 | 855.73 | 1263.3
293.15 K, x2 = 0.7934 | 844.15 | 1262.1
293.15 K, x2 = 0.8942 | 829.14 | 1260.2
293.15 K, x2 = 0.9397 | 821.36 | 1258.9
298.15 K, x2 = 0.1245 | 896.77 | 1242.5
298.15 K, x2 = 0.2149 | 891.76 | 1243.8
298.15 K, x2 = 0.3175 | 885.38 | 1244.9
298.15 K, x2 = 0.4078 | 879 | 1245.5
298.15 K, x2 = 0.4543 | 875.4 | 1245.6
298.15 K, x2 = 0.5047 | 871.25 | 1245.7
298.15 K, x2 = 0.5543 | 866.84 | 1245.7
298.15 K, x2 = 0.6137 | 861.13 | 1245.5
298.15 K, x2 = 0.6973 | 852.18 | 1245.3
298.15 K, x2 = 0.7951 | 840.07 | 1244.5
298.15 K, x2 = 0.8466 | 832.8 | 1243.9
298.15 K, x2 = 0.9449 | 816.86 | 1241.7
303.15 K, x2 = 0.0738 | 894.47 | 1223.5
303.15 K, x2 = 0.1419 | 890.96 | 1224.8
303.15 K, x2 = 0.218 | 886.73 | 1225.9
303.15 K, x2 = 0.302 | 881.57 | 1227
303.15 K, x2 = 0.3764 | 876.51 | 1227.7
303.15 K, x2 = 0.5002 | 866.9 | 1228.3
303.15 K, x2 = 0.5541 | 862.16 | 1228.4
303.15 K, x2 = 0.6056 | 857.29 | 1228.5
303.15 K, x2 = 0.6997 | 847.32 | 1228.4
303.15 K, x2 = 0.7961 | 835.44 | 1227.9
303.15 K, x2 = 0.8493 | 827.96 | 1227.4
303.15 K, x2 = 0.8896 | 821.8 | 1226.8
303.15 K, x2 = 0.9431 | 812.86 | 1225.8
